From patent publication US10251395B2, “Substituted furano-/thienocycloalkylamino-2-pyrimidine derivatives and use thereof for controlling undesired plant growth” (Bayer CropScience Aktiengesellschaft, priority 2015, dated 2019)

Columns and labels:
Assay type in all cases: in vivo
Stellaria media [1] = assay: Pre-emergence herbicidal effect; settings: scored visually after 3 weeks
Outline: (§1)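 Using soil-surface application before emergence, the compound was delivered in a water volume equating to 600 to 800 L/ha. Plants grew in a greenhouse for 3 weeks; activity was then rated visually in percent against untreated plants, with 100% for plants killed.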

Echinochloa crus-galli = assay: Pre-emergence herbicidal effect; settings: scored visually after 3 weeks
Outline: as §1

Veronica persica [2] = assay: Pre-emergence herbicidal effect; settings: scored visually after 3 weeks
Outline: as §1

Alopecurus myosuroides = assay: Pre-emergence herbicidal effect; settings: Dosage 320 g/ha, scored visually after 3 weeks
Outline: as §1

Lolium multiflorum = assay: Pre-emergence herbicidal effect; settings: Dosage 320 g/ha, scored visually after 3 weeks
Outline: as §1

Polygonum convolvulus = assay: Pre-emergence herbicidal effect; settings: Dosage 320 g/ha, scored visually after 3 weeks
Outline: as §1

Setaria viridis = assay: Pre-emergence herbicidal effect; settings: scored visually after 3 weeks
Outline: as §1

Ipomoea purpurea [3] = assay: Pre-emergence herbicidal effect; settings: scored visually after 3 weeks
Outline: as §1

Viola tricolor [4] = assay: Pre-emergence herbicidal effect; settings: scored visually after 3 weeks
Outline: as §1

Abutilon theophrasti [5] = assay: Pre-emergence herbicidal effect; settings: scored visually after 3 weeks
Outline: as §1

Cyperus esculentus = assay: Pre-emergence herbicidal effect; settings: Dosage 320 g/ha, scored visually after 3 weeks
Outline: as §1

Amaranthus retroflexus [6] = assay: Pre-emergence herbicidal effect; settings: Dosage 320 g/ha, scored visually after 3 weeks
Outline: as §1

Matricaria inodora [7] = assay: Pre-emergence herbicidal effect; settings: scored visually after 3 weeks
Outline: as §1

Stellaria media [8] = assay: Post-emergence herbicidal effect; settings: assessed visually after about 3 weeks vs untreated controls
Outline: (§2)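 Greenhouse post-emergence spray: one-leaf seedlings, sandy loam, aqueous WP/EC formulation with 0.2% wetting agent at 600–800 L/ha. Visual assessment after ~3 weeks, as % activity relative to untreated controls.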

Veronica persica [9] = assay: Post-emergence herbicidal effect; settings: 320 g/ha, assessed visually after about 3 weeks vs untreated controls
Outline: as §2

Ipomoea purpurea [10] = assay: Post-emergence herbicidal effect; settings: assessed visually after about 3 weeks vs untreated controls
Outline: as §2

Viola tricolor [11] = assay: Post-emergence herbicidal effect; settings: assessed visually after about 3 weeks vs untreated controls
Outline: as §2

Abutilon theophrasti [12] = assay: Post-emergence herbicidal effect; settings: assessed visually after about 3 weeks vs untreated controls
Outline: as §2

Amaranthus retroflexus [13] = assay: Post-emergence herbicidal effect; settings: assessed visually after about 3 weeks vs untreated controls
Outline: as §2

Matricaria inodora [14] = assay: Post-emergence herbicidal effect; settings: assessed visually after about 3 weeks vs untreated controls
Outline: as §2

SMILES | STEME pre-emergence efficacy (herbicidal activity) (Stellaria media [1]; Dosage 80 g/ha) | STEME pre-emergence efficacy (herbicidal activity) (Stellaria media [1]; Dosage 320 g/ha) | ECHCG pre-emergence efficacy (herbicidal activity) (Echinochloa crus-galli; Dosage 320 g/ha) | VERPE pre-emergence efficacy (herbicidal activity) (Veronica persica [2]; Dosage 80 g/ha) | VERPE pre-emergence efficacy (herbicidal activity) (Veronica persica [2]; Dosage 320 g/ha) | ALOMY pre-emergence efficacy (herbicidal activity) (Alopecurus myosuroides) | LOLMU pre-emergence efficacy (herbicidal activity) (Lolium multiflorum) | SETVI pre-emergence efficacy (herbicidal activity) (Setaria viridis; Dosage 320 g/ha) | PHBPU pre-emergence efficacy (herbicidal activity) (Ipomoea purpurea [3]; Dosage 80 g/ha) | PHBPU pre-emergence efficacy (herbicidal activity) (Ipomoea purpurea [3]; Dosage 320 g/ha) | VIOTR pre-emergence efficacy (herbicidal activity) (Viola tricolor [4]; Dosage 80 g/ha) | VIOTR pre-emergence efficacy (herbicidal activity) (Viola tricolor [4]; Dosage 320 g/ha) | CYPES pre-emergence efficacy (herbicidal activity) (Cyperus esculentus) | MATIN pre-emergence efficacy (herbicidal activity) (Matricaria inodora [7]; Dosage 80 g/ha) | MATIN pre-emergence efficacy (herbicidal activity) (Matricaria inodora [7]; Dosage 320 g/ha) | post-emergence efficacy STEME (Stellaria media [8]; 80 g/ha) | post-emergence efficacy STEME (Stellaria media [8]; 320 g/ha) | post-emergence efficacy VERPE (Veronica persica [9]) | post-emergence efficacy PHBPU (Ipomoea purpurea [10]; 320 g/ha) | post-emergence efficacy VIOTR (Viola tricolor [11]; 80 g/ha) | further results
CC(=NO)c1cnc(NC2CCCc3sc(C)cc32)nc1N (stereo not shown) [compound 286] | 60% | 100% | 100% | 100% | 100% | 60% | 80% | 100% | 100% | 50% | 100% | 100% | 70% | 80% | 100% | 70% | 100% | 100% | 70% | 90% | POLCO pre-emergence efficacy (herbicidal activity) (Polygonum convolvulus): 100%; ABUTH pre-emergence efficacy (herbicidal activity) (Abutilon theophrasti [5]; Dosage 80 g/ha): 70%; ABUTH pre-emergence efficacy (herbicidal activity) (Abutilon theophrasti [5]; Dosage 320 g/ha): 60%; AMARE pre-emergence efficacy (herbicidal activity) (Amaranthus retroflexus [6]): 100%; post-emergence efficacy PHBPU (Ipomoea purpurea [10]; 80 g/ha): 70%; post-emergence efficacy VIOTR (Viola tricolor [11]; 320 g/ha): 90%; post-emergence efficacy ABUTH (Abutilon theophrasti [12]; 80 g/ha): 90%; post-emergence efficacy ABUTH (Abutilon theophrasti [12]; 320 g/ha): 90%; post-emergence efficacy AMARE (Amaranthus retroflexus [13]; 80 g/ha): 90%; post-emergence efficacy AMARE (Amaranthus retroflexus [13]; 320 g/ha): 90%; post-emergence efficacy MATIN (Matricaria inodora [14]; 80 g/ha): 80%; post-emergence efficacy MATIN (Matricaria inodora [14]; 320 g/ha): 90%
CC(=O)c1cnc(NC2CCCc3sccc32)nc1N (stereo not shown) [compound 301] | 100% | 100% | 100% | 100% | 100% | 80% | 100% | 100% | 100% | 100% | 100% | 100% | 70% | 100% | 100% | 60% | 60% | 100% | 90% | 80% | ECHCG pre-emergence efficacy (herbicidal activity) (Echinochloa crus-galli; Dosage 80 g/ha): 70%; SETVI pre-emergence efficacy (herbicidal activity) (Setaria viridis; Dosage 80 g/ha): 100%; post-emergence efficacy VIOTR (Viola tricolor [11]; 320 g/ha): 90%; post-emergence efficacy AMARE (Amaranthus retroflexus [13]; 80 g/ha): 80%; post-emergence efficacy AMARE (Amaranthus retroflexus [13]; 320 g/ha): 80%; post-emergence efficacy MATIN (Matricaria inodora [14]; 320 g/ha): 60%
